Data published in patent publication US20240342186A1, “PYRIDINE DERIVATIVES WITH N-LINKED CYCLIC SUBSTITUENTS AS cGAS INHIBITORS” (Boehringer Ingelheim International GmbH, priority 2021, published 2024).
Like-named read-outs stand apart in the source and are kept apart here.

Legend:
cGAS [1] = target: T1, cGAS (Homo sapiens (Human), UniProt Q8N884); test: Human cGAS enzyme assay (hcGAS IC50, in vitro), cGAMP formation by RapidFire MS; type: biochemical;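 further: enzyme activated by 45 bp dsDNA with GTP and ATP (30 µM each), 60 min compound pre-incubation then 90 min reaction, cGAMP relative to cyclic-di-GMP internal standard, 8-point dilutions up to 10 µM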
[2] = system: cellular cGAS activity in baculovirus-stimulated THP1-Dual cells (IRF dependent Lucia luciferase reporter); test: Human cGAS cell assay: inhibition of IFN induction in virus-stimulated THP1 cells (THP1(vir) IC50); type: cell-based
Outline: (§1)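 THP1-Dual cells with IRF-dependent Lucia luciferase reporter, stimulated by empty baculovirus (dsDNA delivery activating cGAS) or, for the counter assay, directly by cGAMP. 5000 cells/well, 8 concentrations from 10 μM top, 1% DMSO, 18 h at 37 °C; luminescence read, IC50 by 4-parameter logistic fit versus unstimulated low control.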

[3] = system: cGAMP-stimulated THP1-Dual cells (pathway directly downstream of cGAS); test: cGAMP stimulated counter cell assay: inhibition of IFN induction in cGAMP-stimulated THP1 cells (THP1(cGAMP) IC50); type: cell-based, human; conditions: for IC50: read-out: THP1(cGAMP) IC50 (converted); for Ratio THP1(cGAMP) IC50 / THP1(vir) IC50: selectivity for cGAS inhibition
Outline: as §1

[4] = system: cellular cGAS activity in dsDNA-stimulated human whole blood; test: Human whole blood assay (hWB IC50): IFNα2α production after dsDNA transfection; type: cell-based
Outline: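 Citrated blood from healthy donors preincubated 60 min at room temperature with compound (top 10 µM, ~1:5 steps, 0.1% DMSO), then transfected with dsDNA/Fugene and incubated 22 h at 37 °C. Plasma IFNα2α measured by MSD immunoassay; IC50 from 4-parameter fit of % control (stimulated vs unstimulated).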

cGAS [5] = target: T1, cGAS; conditions: groups of page 44/45 of WO 2020/142729; read-out: biochemical (in vitro) IC50 group; cited from earlier work
[6] = biochemical (in vitro) cGAS inhibition
[7] = Homo sapiens, THP1-Dual, read-out: THP1(vir) IC50, virus-stimulated THP1 cells, IFN induction
[8] = Homo sapiens, THP1-Dual, inhibition of IFN induction in cGAMP-stimulated THP1 cells
[9] = inhibition of IFN induction in dsDNA-stimulated human whole blood
[10] = Homo sapiens, THP1-Dual, inhibition of IFN induction in virus-stimulated THP1 cells, read-out: THP1(vir) IC50
[11] = Homo sapiens, THP1-Dual, cGAMP-stimulated THP1 cells, counter assay
[12] = biochemical (in vitro), human cGAS, 45 bp dsDNA, GTP/ATP
[13] = dsDNA-stimulated human whole blood, IFN induction

T1 sequence (Q8N884 whole entry): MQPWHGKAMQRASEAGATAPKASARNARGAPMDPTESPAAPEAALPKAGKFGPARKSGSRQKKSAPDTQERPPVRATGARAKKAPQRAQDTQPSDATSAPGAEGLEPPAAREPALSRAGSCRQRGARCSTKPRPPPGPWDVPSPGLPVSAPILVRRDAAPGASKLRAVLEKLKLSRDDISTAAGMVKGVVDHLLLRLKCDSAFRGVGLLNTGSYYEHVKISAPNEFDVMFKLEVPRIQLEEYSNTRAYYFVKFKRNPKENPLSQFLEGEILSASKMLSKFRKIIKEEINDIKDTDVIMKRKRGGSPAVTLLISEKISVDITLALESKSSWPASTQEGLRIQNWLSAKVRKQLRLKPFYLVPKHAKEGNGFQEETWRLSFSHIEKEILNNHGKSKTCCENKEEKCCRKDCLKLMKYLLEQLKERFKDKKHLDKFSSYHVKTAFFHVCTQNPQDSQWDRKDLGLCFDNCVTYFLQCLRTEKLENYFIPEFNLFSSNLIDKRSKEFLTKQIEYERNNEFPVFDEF

Compound	IC50 (cGAS [1]; [6])	IC50 [4, 9]	IC50 [2, 10]	IC50 [3, 8]	Ratio THP1(cGAMP) IC50 / THP1(vir) IC50 [3]	also measured
C[C@@H]1N(c2cccnc2O[C@H]2C[C@@H](C(=O)O)N(c3nc(C(F)F)nc4c3oc3ccccc34)C2)CCOC12COC2 [Example 4.04, (2S,4S)-4-({3-[(9S)-9-methyl-2,5-dioxa-8-azaspiro[3.5]nonan-8-y]-pyridin-2-yl}-oxy)1-[4-(difluoro-methyl)-8-oxa-3,5-diazatricyclo[7.4.0.0^2.7]trideca-1(13),2,4,6,9,11-hexaen-6-yl]pyrrolidine-2-carboxylic acid]	2 nM	77 nM		> 16600 nM	>43	IC50 ([2]; Homo sapiens, THP1-Dual, read-out: THP1(vir) IC50, inhibition of IFN induction in virus-stimulated THP1 cells): 386 nM; IC50 [2, 7]: 386 nM; IC50 ([3]; cGAMP-stimulated THP1 cells, counter assay): > 16600 nM
C[C@@H]1N(c2cc(-c3ccnc([S+](C)[O-])c3)cnc2O[C@H]2C[C@@H](C(=O)O)N(c3nc(C(F)F)nc4c3oc3ccccc34)C2)CCOC12COC2 (stereo partly drawn) [Example 5.01, (2S,4S)-1-[4-(Difluoromethyl)-8-oxa-3,5-diazatricyclo[7.4.0.0^2,7]trideca-1(9),2(7),3,5,10,12-hexaen-6-yl]-4-({2′-methanesulfinyl-5-[(95)-9-methyl-2,5-dioxa-8-azaspiro[3.5]nonan-8-yl]-[3,4′-bipyridin]-6-yl}oxy)pyrrolidine-2-carboxylic acid]	5 nM	239 nM	579 nM	22100 nM	38	
CC#Cc1cnc(O[C@H]2C[C@@H](C(=O)O)N(c3nc(C(F)(F)F)nc4c3oc3ccccc34)C2)c(N2CCOC3(COC3)[C@@H]2C)c1 [Example 6.01]	10 nM	25 nM	< 5 nM	20500 nM	3801	
CC#Cc1cnc(O[C@H]2C[C@@H](C(=O)O)N(c3nc(C(F)F)nc4c3oc3ccccc34)C2)c(N2CCOC3(COC3)[C@@H]2C)c1 [Example 6.02]	6 nM	8 nM	< 5 nM	> 16000 nM	>3000	
CC#Cc1cnc(O[C@H]2C[C@@H](C(=O)O)N(c3nc(C(F)(F)F)nc4c3oc3ccccc34)C2)c(N2CCOC3(CC3)[C@@H]2C)c1 [Example 6.03]	7 nM	95 nM	5 nM	10900 nM	2273	
COc1csc(-c2cnc(O[C@H]3C[C@@H](C(=O)O)N(c4nc(C(F)(F)F)nc5c4oc4ccccc45)C3)c(N3CCOC4(COC4)[C@@H]3C)c2)n1 [Example 7.02]	14 nM	13 nM	1 nM	8320 nM	7533	
CNc1cccc(-c2cnc(O[C@H]3C[C@@H](C(=O)O)N(c4nc(C(F)(F)F)nc5c4oc4ccccc45)C3)c(N3CCOC4(COC4)[C@@H]3C)c2)n1 [Example 7.03]	21 nM	27 nM	2 nM	> 10000 nM	4151	
Cc1cnc(-c2cnc(O[C@H]3C[C@@H](C(=O)O)N(c4nc(C(F)(F)F)nc5c4oc4ccccc45)C3)c(N3CCOC4(COC4)[C@@H]3C)c2)cn1 [Example 7.04]	12 nM	22 nM	2 nM	> 10000 nM	4084	
C[C@@H]1N(c2cc(-c3cnn(C)n3)cnc2O[C@H]2C[C@@H](C(=O)O)N(c3nc(C(F)(F)F)nc4c3oc3ccccc34)C2)CCOC12COC2 [Example 7.05]	9 nM	35 nM	10 nM	13200 nM	1292	
Cc1nc(N2C[C@@H](Cc3nn[nH]n3)C[C@H]2C(=O)O)c2oc3ccccc3c2n1 [Example 25, reference compound]						IC50 ([2]; Homo sapiens, THP1-Dual, virus-stimulated THP1 cells, read-out: THP1(vir) IC50): 17000 nM; IC50 [3, 11]: > 17000 nM; IC50 (cGAS [5]): < 100 nM
COC(=O)[C@@H]1C[C@H](Oc2ncccc2N2CCOC3(COC3)[C@@H]2C)CN1c1nc(C(F)F)nc2c1oc1ccccc12 [Example P01, Methyl (2S,4S)-4-({3-[(9S)-9-methyl-2,5-dioxa-8-azaspiro[3.5]nonan-8-yl]pyridin-2-yl}oxy)-1-[4-(difluoromethyl)-8-oxa-3,5-diazatricyclo[7.4.0.0^2,7]trideca-1(9),2(7),3,5,10,12-hexaen-6-yl]pyrrolidine-2-carboxylate]						IC50 (cGAS [1]; [12]): > 9960 nM; IC50 [2, 7]: 358 nM; IC50 [3, 11]: 26100 nM; IC50 [4, 13]: 1310 nM
COC(=O)[C@@H]1C[C@H](Oc2ncc(Br)cc2N2CCOC3(COC3)[C@@H]2C)CN1c1nc(C(F)(F)F)nc2c1oc1ccccc12 [Example P02]						IC50 (cGAS [1]; [12]): > 9950 nM; IC50 [2, 7]: 444 nM; IC50 [3, 11]: 17100 nM; IC50 [4, 13]: 5330 nM
C#Cc1cnc(O[C@H]2C[C@@H](C(=O)OC)N(c3nc(C(F)(F)F)nc4c3oc3ccccc34)C2)c(N2CCOC3(COC3)[C@@H]2C)c1 [Example P03]						IC50 (cGAS [1]; [12]): 9620 nM; IC50 [2, 7]: 188 nM; IC50 [3, 11]: 22800 nM; IC50 [4, 13]: 1090 nM
COC(=O)[C@@H]1C[C@H](Oc2ncc(-c3cccnc3OC)cc2N2CCOC3(COC3)[C@@H]2C)CN1c1nc(C(F)(F)F)nc2c1oc1ccccc12 [Example P04]						IC50 (cGAS [1]; [12]): > 9950 nM; IC50 ([2]; Homo sapiens, THP1-Dual, virus-stimulated THP1 cells, IFN induction, read-out: THP1(vir) IC50): 67 nM; IC50 [3, 11]: > 16600 nM; IC50 [4, 13]: 2750 nM
(2S,4S)-4-({3-[(95)-9-Methyl-2,5-dioxa-8-azaspiro[3.5]nonan-8-yl]-5-(pyrimidin-5-yl)pyridin-2-yl}oxy)-1-[4-(trifluoromethyl)-8-oxa-3,5-diazatricyclo[7.4.0.0^2,7]trideca-1(9),2(7),3,5,10,12-hexaen-6-yl]pyrrolidine-2-carboxylic acid [Example 7.01]	14 nM	50 nM			1700	IC50 ([2]; inhibition of IFN induction in virus-stimulated THP1 cells, read-out: THP1(vir) IC50): 5 nM; IC50 ([3]; inhibition of IFN induction in cGAMP-stimulated THP1 cells): 9260 nM

The next lines start with results.

IC50 (cGAS [1]; [6])	IC50 [4, 9]	IC50 [2, 10]	Compound	IC50 [3, 8]	Ratio THP1(cGAMP) IC50 / THP1(vir) IC50 [3]	also measured
5 nM	21 nM	11 nM	C[C@@H]1N(c2cc(-c3cn(C)nn3)cnc2O[C@H]2C[C@@H](C(=O)O)N(c3nc(C(F)(F)F)nc4c3oc3ccccc34)C2)CCOC12COC2 [Example 8.01, (2S,4S)-4-{[5-(1-methyl-1H-1,2,3-triazol-4-yl)-3-[(95)-9-methyl-2,5-dioxa-8-azaspiro[3.5]nonan-8-yl]pyridin-2-yl]oxy}-1-[4-(trifluoromethyl)-8-oxa-3,5-diazatricyclo[7.4.0.0^2,7]trideca-1(9),2(7),3,5,10,12-hexaen-6-yl]pyrrolidine-2-carboxylic acid]	14900 nM	1366	
6 nM	38 nM	16 nM	CSc1cnc(O[C@H]2C[C@@H](C(=O)O)N(c3nc(C(F)F)nc4c3oc3ccccc34)C2)c(N2CCOC3(COC3)[C@@H]2C)c1 [Example 9.01, (2S,4S)-1-[4-(difluoromethyl)-8-oxa-3,5-diazatricyclo[7.4.0.0^2,7]trideca-1(9),2(7),3,5,10,12-hexaen-6-yl]-4-({3-[(9S)-9-methyl-2,5-dioxa-8-azaspiro[3.5]nonan-8-yl]-5-(methylsulfanyl)pyridin-2-yl}oxy)pyrrolidine-2-carboxylic acid]	19800 nM	1254	
5 nM	47 nM	10 nM	C[C@@H]1N(c2cc(-n3cccn3)cnc2O[C@H]2C[C@@H](C(=O)O)N(c3nc(C(F)(F)F)nc4c3oc3ccccc34)C2)CCOC12COC2 [Example 10.01, (2S,4S)-4-({3-[(95)-9-methyl-2,5-dioxa-8-azaspiro[3.5]nonan-8-yl]-5-(1H-pyrazol-1-yl)pyridin-2-yl}oxy)-1-[4-(trifluoromethyl)-8-oxa-3,5-diazatricyclo[7.4.0.0^2,7]trideca-1(9),2(7),3,5,10,12-hexaen-6-yl]pyrrolidine-2-carboxylic acid]	> 10000 nM	>1000	
